Measurements reported in ChEMBL document CHEMBL1128626, “The synthesis and biological activity of enediyne minor groove binding hybrids” (Bioorg Med Chem Lett, 1995).

Assays:
Nucleic Acid [1] = assay: Concentration of drug which induced cleavage of 50% of PM2 supercoiled DNA in the absence of beta-mercaptoethanol; type: functional
Nucleic Acid [2] = assay: Concentration of drug which induced cleavage of 50% of PM2 supercoiled DNA in the presence of beta-mercaptoethanol; type: functional
HCT-116 = assay: Cytotoxicity against HCT116 human colon tumor cell line; type: functional, cell-based

Cn1cc(NC(=O)c2cc(NC(=O)Cc3ccc(COCO[C@@]45C#C/C=C\C#C[C@H](O)C(=CCC4)C5=O)cc3)cn2C)cc1C(=O)NCCC(=N)N showed a Cleavage (Nucleic Acid [1]) of 100 µM, a Cleavage (Nucleic Acid [2]) of 10 µM and an IC50 (HCT-116) of 7.4 µM.
In the case of Cn1cc(NC(=O)Cc2ccc(CO[C@H]3C#C/C=C\C#C[C@]4(O)CCC=C3C4=O)cc2)cc1C(=O)Cc1cc(C(=O)NCCC(=N)N)n(C)c1, the Cleavage (Nucleic Acid [1]) is reported as 10 µM, the Cleavage (Nucleic Acid [2]) is reported as less than 1 µM and the IC50 (HCT-116) is reported as 640 µM.
C=C(OC)C(=O)Nc1cc(OC)c(OC)cc1C(=O)O[C@H]1C[C@H](O[C@@H]2C(=O)C(NC(=O)OC)=C3/C(=C\CSSSC)[C@]2(O)C#C/C=C\C#C[C@@H]3O[C@@H]2O[C@H](C)[C@@H](NO[C@H]3C[C@H](O)[C@H](SC)[C@@H](C)O3)[C@H](O)[C@H]2O[C@H]2C[C@H](OC)[C@@H](NC(C)C)CO2)O[C@@H](C)[C@H]1O [ESPERAMICIN A1] showed a Cleavage (Nucleic Acid [1]) of 10 µM, a Cleavage (Nucleic Acid [2]) of less than 1 µM and an IC50 (HCT-116) of 1e-06 µM.
Compound O=C1C2=CCC[C@@]1(O)C#C/C=C\C#C[C@@H]2O has a Cleavage (Nucleic Acid [1]) of 1000 µM and a Cleavage (Nucleic Acid [2]) of 100 µM.
